Assay results reported in ChEMBL document CHEMBL1128882, “Novel lignan derivatives as selective inhibitors of DNA topoisomerase II” (1995).
Active and inactive are the calls of the source. No cut-off for these calls is given here.

Key:
KB [1] = assay: In vitro topoisomerase II -DNA complex formation at a concentration of 50 uM; no activity; type: functional, cell-based; conditions: Homo sapiens
KB [2] = assay: In vitro topoisomerase II -DNA complex formation at a concentration of 10 uM; no activity; type: functional, cell-based; conditions: Homo sapiens
KB [3] = assay: In vitro topoisomerase II -DNA complex formation at a concentration of 100 uM; no activity; type: functional, cell-based; conditions: Homo sapiens
[4] = target: DNA topoisomerase 2-beta (Homo sapiens) (UniProt Q02880); assay: In vitro inhibition of DNA topoisomerase II activity (DNA unknotting) at a concentration of 50 uM
[5] = target: T1, DNA topoisomerase 1 (Homo sapiens) (UniProt P11387); assay: In vitro inhibition of DNA topoisomerase I activity (ATP-independent DNA relaxation) at a concentration of 50 uM; no activity
T1 sequence (whole entry): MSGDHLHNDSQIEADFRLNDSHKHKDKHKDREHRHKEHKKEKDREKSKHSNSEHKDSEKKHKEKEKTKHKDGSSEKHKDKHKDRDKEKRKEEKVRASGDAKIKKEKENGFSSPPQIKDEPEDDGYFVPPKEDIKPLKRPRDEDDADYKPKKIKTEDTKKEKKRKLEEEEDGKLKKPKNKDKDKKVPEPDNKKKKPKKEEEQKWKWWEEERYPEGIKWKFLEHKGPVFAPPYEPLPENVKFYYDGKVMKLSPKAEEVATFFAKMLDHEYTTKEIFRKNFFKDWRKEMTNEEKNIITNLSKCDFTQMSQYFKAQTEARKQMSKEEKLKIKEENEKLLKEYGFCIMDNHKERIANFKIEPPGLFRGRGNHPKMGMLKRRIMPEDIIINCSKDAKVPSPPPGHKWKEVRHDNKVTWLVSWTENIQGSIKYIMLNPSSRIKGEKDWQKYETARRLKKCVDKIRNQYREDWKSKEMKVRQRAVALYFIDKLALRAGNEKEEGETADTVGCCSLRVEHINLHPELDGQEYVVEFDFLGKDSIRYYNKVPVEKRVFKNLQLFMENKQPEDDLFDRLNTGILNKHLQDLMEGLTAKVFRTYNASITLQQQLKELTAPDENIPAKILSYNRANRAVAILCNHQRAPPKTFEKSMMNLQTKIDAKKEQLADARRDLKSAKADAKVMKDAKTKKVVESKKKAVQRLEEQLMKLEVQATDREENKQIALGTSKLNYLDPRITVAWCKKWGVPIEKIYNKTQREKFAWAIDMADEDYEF

KB [6] = assay: In vitro topoisomerase II -DNA complex formation at a concentration of 1 uM; no activity; type: functional, cell-based; conditions: Homo sapiens
KB [7] = assay: In vitro cellular protein-DNA complex formation at a concentration of 50 uM; no activity; type: functional, cell-based; conditions: Homo sapiens
[8] = target: T1, DNA topoisomerase 1 (Homo sapiens); assay: In vitro inhibition of DNA topoisomerase I activity (ATP-independent DNA relaxation) at a concentration of 50 uM
KB [9] = assay: In vitro topoisomerase II -DNA complex formation at a concentration of 50 uM; type: functional, Homo sapiens
KB [10] = assay: In vitro cellular protein-DNA complex formation at a concentration of 50 uM; type: functional, Homo sapiens

Sequence of DNA topoisomerase 2-beta (Homo sapiens) (Q02880 whole entry): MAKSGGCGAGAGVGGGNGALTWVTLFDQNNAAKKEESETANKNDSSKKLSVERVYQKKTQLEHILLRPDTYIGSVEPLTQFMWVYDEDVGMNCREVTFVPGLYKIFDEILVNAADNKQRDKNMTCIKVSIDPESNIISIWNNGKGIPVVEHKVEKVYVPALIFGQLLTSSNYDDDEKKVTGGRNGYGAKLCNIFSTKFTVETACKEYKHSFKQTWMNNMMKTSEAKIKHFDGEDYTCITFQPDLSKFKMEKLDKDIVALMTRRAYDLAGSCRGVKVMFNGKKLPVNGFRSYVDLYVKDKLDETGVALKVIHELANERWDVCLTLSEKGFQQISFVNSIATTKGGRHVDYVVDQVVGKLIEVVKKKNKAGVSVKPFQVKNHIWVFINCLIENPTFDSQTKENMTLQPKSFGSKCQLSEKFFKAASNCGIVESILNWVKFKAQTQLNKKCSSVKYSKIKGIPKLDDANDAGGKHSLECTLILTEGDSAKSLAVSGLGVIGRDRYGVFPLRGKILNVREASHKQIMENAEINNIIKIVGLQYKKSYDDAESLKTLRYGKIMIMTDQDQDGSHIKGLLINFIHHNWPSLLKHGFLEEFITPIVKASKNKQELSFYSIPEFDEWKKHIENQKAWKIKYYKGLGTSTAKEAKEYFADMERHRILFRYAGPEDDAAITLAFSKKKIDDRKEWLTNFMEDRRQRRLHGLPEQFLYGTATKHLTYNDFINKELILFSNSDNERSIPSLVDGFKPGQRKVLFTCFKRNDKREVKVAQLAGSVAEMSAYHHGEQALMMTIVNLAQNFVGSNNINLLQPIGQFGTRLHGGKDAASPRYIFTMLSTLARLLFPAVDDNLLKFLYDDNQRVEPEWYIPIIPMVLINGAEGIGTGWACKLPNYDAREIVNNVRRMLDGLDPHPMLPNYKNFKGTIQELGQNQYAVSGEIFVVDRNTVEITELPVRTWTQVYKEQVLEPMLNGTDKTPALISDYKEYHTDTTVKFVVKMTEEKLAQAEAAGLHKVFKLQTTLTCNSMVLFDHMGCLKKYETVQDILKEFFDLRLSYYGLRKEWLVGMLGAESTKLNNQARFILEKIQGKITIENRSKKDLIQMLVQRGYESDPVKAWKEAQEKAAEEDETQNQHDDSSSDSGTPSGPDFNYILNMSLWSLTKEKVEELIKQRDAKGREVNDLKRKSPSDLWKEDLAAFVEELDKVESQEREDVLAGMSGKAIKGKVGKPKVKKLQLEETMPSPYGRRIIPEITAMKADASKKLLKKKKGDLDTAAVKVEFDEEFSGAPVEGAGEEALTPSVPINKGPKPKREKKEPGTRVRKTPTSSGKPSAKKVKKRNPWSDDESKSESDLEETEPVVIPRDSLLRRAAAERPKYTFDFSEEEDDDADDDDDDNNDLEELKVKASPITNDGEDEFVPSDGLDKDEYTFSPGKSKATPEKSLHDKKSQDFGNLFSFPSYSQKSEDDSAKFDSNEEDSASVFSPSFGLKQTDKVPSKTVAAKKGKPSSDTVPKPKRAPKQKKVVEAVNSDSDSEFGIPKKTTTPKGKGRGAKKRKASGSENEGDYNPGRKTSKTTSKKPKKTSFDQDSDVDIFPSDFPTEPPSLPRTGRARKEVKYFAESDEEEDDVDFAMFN

Complex formation (KB [1])	Complex formation (KB [2])	Complex formation (KB [3])	inhibition [4] [%]	inhibition [5]	Complex formation (KB [6])	inhibition [8] [%]	SMILES	Complex formation (KB [7])	Complex formation (KB [9]) [%]	Complex formation (KB [10]) [%]
No activity	–	–	100	–	–	100	O=C(O[C@H](Cc1ccc(O)c(O)c1)C(=O)O)C1=Cc2cc(O)c(O)cc2[C@@H](c2ccc(O)c(O)c2)[C@@H]1C(=O)O[C@H](Cc1ccc(O)c(O)c1)C(=O)O	No activity	–	–
–	–	–	100	–	–	100	O=C(O)C1=Cc2cc(O)c(O)cc2[C@@H](c2ccc(O)c(O)c2)[C@@H]1C(=O)O	–	–	–
No activity	–	–	100	inactive	–	–	COC(=O)C1=Cc2cc(O)c(O)cc2[C@@H](c2ccc(O)c(O)c2)[C@@H]1C(=O)OC	No activity	–	–
No activity	–	–	100	–	–	100	O=C(O[C@H](Cc1ccc(O)c(O)c1)C(=O)O)C1=Cc2cc(O)c(O)cc2[C@H](c2ccc(O)c(O)c2)[C@H]1C(=O)O[C@H](Cc1ccc(O)c(O)c1)C(=O)O	No activity	–	–

Second part, the compound before the results:

SMILES	Complex formation (KB [1])	Complex formation (KB [2])	Complex formation (KB [3])	inhibition [4] [%]	inhibition [5]	Complex formation (KB [6])	inhibition [8] [%]	Complex formation (KB [7])	Complex formation (KB [9]) [%]	Complex formation (KB [10]) [%]
O=C(O[C@@H]1C[C@](O)(C(=O)O)C[C@@H](O)[C@H]1O)C1=Cc2cc(O)c(O)cc2[C@H](c2ccc(O)c(O)c2)[C@H]1C(=O)O[C@@H]1C[C@](O)(C(=O)O)C[C@@H](O)[C@H]1O	No activity	No activity	No activity	100	inactive	No activity	–	No activity	–	–
COc1cc([C@@H]2c3cc4c(cc3[C@@H](O[C@@H]3O[C@@H]5CO[C@@H](C)O[C@H]5[C@H](O)[C@H]3O)[C@H]3COC(=O)[C@H]23)OCO4)cc(OC)c1O [ETOPOSIDE]	–	–	–	–	inactive	–	–	–	100	100
O=C(O[C@@H]1C[C@](O)(C(=O)O)C[C@@H](O)[C@H]1O)C1=Cc2cc(O)c(O)cc2[C@@H](c2ccc(O)c(O)c2)[C@@H]1C(=O)O[C@@H]1C[C@](O)(C(=O)O)C[C@@H](O)[C@H]1O	No activity	No activity	No activity	100	inactive	No activity	–	No activity	–	–
O=C1OC(c2ccc(O)c(O)c2)C2C(=O)OC(c3ccc(O)c(O)c3)C12 (stereo not drawn)	–	–	–	100	–	–	100	–	–	–
